Test results: PubChem BioAssay AID256 (DTP/NCI, 2004)
Values joined by “and” are separate entries in the source; they are usually repeats but may differ in a detail not shown here. Equal entries are not always repeated. Toxic doses and inconclusive results are not listed. Rule for the calls: active = survival T/C of 150% or more; inactive = T/C below 125% in these data.

System: CD2F1 mice, L1210 leukemia ip, survival T/C
Experiment: NCI In Vivo Anticancer Drug Screen. Data for tumor model L1210 Leukemia (intraperitoneal) in CD2F1 (CDF1) mice
Conditions: higher = longer survival
How it was run: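 Read-out first: treated-group measurement over vehicle-control measurement, expressed as a ratio. Animals bore a transplanted tumor line and were dosed with compound or vehicle.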

[1] = endpoint: mean survival time, dose: 100.0 mg/kg/injection, schedule: Q01DX001 (ip), vehicle: saline with Tween-80
[2] = endpoint: mean survival time, dose: 100.0 mg/kg/injection, schedule: Q04DX002 (ip), vehicle: saline with Tween-80
[3] = endpoint: mean survival time, dose: 100.0 mg/kg/injection, schedule: Q04DX003 (ip), vehicle: saline with Tween-80
[4] = endpoint: mean survival time, dose: 200.0 mg/kg/injection, schedule: Q01DX001 (ip), vehicle: saline with Tween-80
[5] = endpoint: mean survival time, dose: 200.0 mg/kg/injection, schedule: Q04DX002 (ip), vehicle: saline with Tween-80
[6] = endpoint: mean survival time, dose: 400.0 mg/kg/injection, schedule: Q01DX001 (ip), vehicle: saline with Tween-80
[7] = endpoint: mean survival time, dose: 400.0 mg/kg/injection, schedule: Q04DX002 (ip), vehicle: saline with Tween-80
[8] = endpoint: mean survival time, dose: 100.0 mg/kg/injection, schedule: Q01DX009 (ip), vehicle: other
[9] = endpoint: mean survival time, dose: 200.0 mg/kg/injection, schedule: Q01DX009 (ip), vehicle: other
[10] = endpoint: mean survival time, dose: 400.0 mg/kg/injection, schedule: Q01DX009 (ip), vehicle: other

Measured: T/C

CCOC(=O)c1ccc(OC(=O)Nc2cc(C)ccc2C)cc1
inactive: endpoint: mean survival time, dose: 50.0 mg/kg/injection, schedule: Q01DX009 (ip), vehicle: saline with Tween-80 100 % of control | [1] 103 % of control | [2] 98 % of control and 101 % of control | [3] 97 % of control | [4] 100 % of control | [5] 113 % of control and 109 % of control | endpoint: mean survival time, dose: 200.0 mg/kg/injection, schedule: Q04DX003 (ip), vehicle: saline with Tween-80 92 % of control | [6] 102 % of control | [7] 114 % of control and 102 % of control | endpoint: mean survival time, dose: 400.0 mg/kg/injection, schedule: Q04DX003 (ip), vehicle: saline with Tween-80 94 % of control

CCCCCC(C)NCCO (centres undefined)
inactive: endpoint: mean survival time, dose: 75.0 mg/kg/injection, schedule: Q01DX001 (ip), vehicle: saline 98 % of control

C=CCNC(=O)C[n+]1cccc(C(=O)Nc2ccccc2)c1
inactive: [3] 97 % of control

Cc1nc(N)[nH]c(=O)c1CCCNc1cccnc1
inactive: [1] 96 % of control | [4] 92 % of control | [6] 92 % of control

CC(=O)C(C)(c1ccccc1)N(Cc1ccccc1)C(=O)c1ccccc1 (centres undefined)
inactive: endpoint: mean survival time, dose: 100.0 mg/kg/injection, schedule: Q01DX001 (ip), vehicle: saline 96 % of control | endpoint: mean survival time, dose: 200.0 mg/kg/injection, schedule: Q01DX001 (ip), vehicle: saline 98 % of control | endpoint: mean survival time, dose: 400.0 mg/kg/injection, schedule: Q01DX001 (ip), vehicle: saline 96 % of control

COc1ccc2c(ccc[n+]2C)c1
inactive: endpoint: mean survival time, dose: 5.0 mg/kg/injection, schedule: Q01DX009 (ip), vehicle: saline 106 % of control | endpoint: mean survival time, dose: 5.0 mg/kg/injection, schedule: Q04DX003 (ip), vehicle: saline 103 % of control | endpoint: mean survival time, dose: 10.0 mg/kg/injection, schedule: Q01DX009 (ip), vehicle: saline 107 % of control | endpoint: mean survival time, dose: 10.0 mg/kg/injection, schedule: Q04DX003 (ip), vehicle: saline 101 % of control | endpoint: mean survival time, dose: 12.5 mg/kg/injection, schedule: Q01DX009 (ip), vehicle: alcohol 107 % of control | endpoint: mean survival time, dose: 12.5 mg/kg/injection, schedule: Q04DX003 (ip), vehicle: acetone 104 % of control | endpoint: mean survival time, dose: 20.0 mg/kg/injection, schedule: Q01DX009 (ip), vehicle: saline 106 % of control | endpoint: mean survival time, dose: 20.0 mg/kg/injection, schedule: Q04DX003 (ip), vehicle: saline 109 % of control | endpoint: mean survival time, dose: 25.0 mg/kg/injection, schedule: Q01DX009 (ip), vehicle: alcohol 116 % of control | endpoint: mean survival time, dose: 25.0 mg/kg/injection, schedule: Q04DX003 (ip), vehicle: acetone 106 % of control | endpoint: mean survival time, dose: 50.0 mg/kg/injection, schedule: Q04DX003 (ip), vehicle: acetone 106 % of control

Oc1ccc(O)c2c1C1(Cl)C(Cl)=C(Cl)C2(Cl)C1(Cl)Cl
inactive: [8] 95 % of control | [9] 98 % of control | [10] 106 % of control

C=CC(=O)O
inactive: endpoint: mean survival time, dose: 1.56 mg/kg/injection, schedule: Q04DX003 (ip), vehicle: saline with Tween-80 107 % of control | endpoint: mean survival time, dose: 3.12 mg/kg/injection, schedule: Q04DX003 (ip), vehicle: saline with Tween-80 109 % of control | endpoint: mean survival time, dose: 6.25 mg/kg/injection, schedule: Q01DX009 (ip), vehicle: saline with Tween-80 97 % of control | endpoint: mean survival time, dose: 6.25 mg/kg/injection, schedule: Q04DX003 (ip), vehicle: Klucel (hydroxypropylcellulose) (HPC) 90 % of control | endpoint: mean survival time, dose: 6.25 mg/kg/injection, schedule: Q04DX003 (ip), vehicle: saline with Tween-80 101 % of control | endpoint: mean survival time, dose: 9.2 mg/kg/injection, schedule: Q01DX009 (ip), vehicle: acetone 89 % of control | endpoint: mean survival time, dose: 12.5 mg/kg/injection, schedule: Q01DX009 (ip), vehicle: saline with Tween-80 92 % of control | endpoint: mean survival time, dose: 12.5 mg/kg/injection, schedule: Q04DX003 (ip), vehicle: Klucel (hydroxypropylcellulose) (HPC) 96 % of control | endpoint: mean survival time, dose: 12.5 mg/kg/injection, schedule: Q04DX003 (ip), vehicle: saline with Tween-80 91 % of control | endpoint: mean survival time, dose: 25.0 mg/kg/injection, schedule: Q04DX003 (ip), vehicle: saline with Tween-80 97 % of control

NCC1OC(OC2C(N)CC(N)C(O)C2OC2OC(CO)C(O)C2O)C(N)C(O)C1O (centres undefined)
inactive: endpoint: mean survival time, dose: 75.0 mg/kg/injection, schedule: Q04DX003 (ip), vehicle: saline 96 % of control | endpoint: mean survival time, dose: 150.0 mg/kg/injection, schedule: Q04DX003 (ip), vehicle: saline 102 % of control | endpoint: mean survival time, dose: 300.0 mg/kg/injection, schedule: Q04DX003 (ip), vehicle: saline 100 % of control

COc1cc(/C=C2\NC(=O)NC2=O)ccc1O
inactive: [1] 94 % of control | [4] 88 % of control | [6] 90 % of control

O=C(Nc1ccn(C2CC(O)C(CO)O2)c(=O)n1)c1ccccc1 (centres undefined)
inactive: endpoint: median survival time, dose: 12.5 mg/kg/injection, schedule: Q01DX005 (ip), vehicle: saline with Tween-80 100 % of control | endpoint: median survival time, dose: 25.0 mg/kg/injection, schedule: Q01DX005 (ip), vehicle: saline with Tween-80 104 % of control | endpoint: median survival time, dose: 50.0 mg/kg/injection, schedule: Q01DX005 (ip), vehicle: saline with Tween-80 103 % of control | endpoint: median survival time, dose: 100.0 mg/kg/injection, schedule: Q01DX005 (ip), vehicle: saline with Tween-80 98 % of control | endpoint: median survival time, dose: 200.0 mg/kg/injection, schedule: Q01DX005 (ip), vehicle: saline with Tween-80 95 % of control

Cn1c(CS)nc2ccccc21
inactive: [2] 101 % of control | [5] 93 % of control

NC(=O)c1cc(NCCN2CCCCC2)c([N+](=O)[O-])cc1[N+](=O)[O-]
inactive: [2] 95 % of control | [5] 95 % of control | [7] 95 % of control

Cn1cnc([N+](=O)[O-])c1Sc1ncnc2c1cnn2C1OC(CO)C(O)C1O (centres undefined)
inactive: endpoint: mean survival time, dose: 25.0 mg/kg/injection, schedule: Q01DX009 (ip), vehicle: other 95 % of control | endpoint: mean survival time, dose: 50.0 mg/kg/injection, schedule: Q01DX009 (ip), vehicle: other 114 % of control | [8] 97 % of control | [9] 108 % of control | [10] 117 % of control | endpoint: median survival time, dose: 10.0 mg/kg/injection, schedule: Q01DX005 (ip), vehicle: saline with Tween-80 96 % of control | endpoint: median survival time, dose: 20.0 mg/kg/injection, schedule: Q01DX005 (ip), vehicle: saline with Tween-80 103 % of control | endpoint: median survival time, dose: 40.0 mg/kg/injection, schedule: Q01DX005 (ip), vehicle: saline with Tween-80 103 % of control | endpoint: median survival time, dose: 80.0 mg/kg/injection, schedule: Q01DX005 (ip), vehicle: saline with Tween-80 102 % of control | endpoint: median survival time, dose: 160.0 mg/kg/injection, schedule: Q01DX005 (ip), vehicle: saline with Tween-80 91 % of control

CC1(C(=O)O)OC12CCCCC2 (centres undefined)
inactive: endpoint: mean survival time, dose: 100.0 mg/kg/injection, schedule: Q01DX009 (ip), vehicle: saline with Tween-80 107 % of control | endpoint: mean survival time, dose: 200.0 mg/kg/injection, schedule: Q01DX009 (ip), vehicle: saline with Tween-80 108 % of control | endpoint: mean survival time, dose: 400.0 mg/kg/injection, schedule: Q01DX009 (ip), vehicle: saline with Tween-80 108 % of control

CCOC(=O)C(C)C(=O)O (centres undefined)
inactive: endpoint: mean survival time, dose: 50.0 mg/kg/injection, schedule: Q01DX009 (ip), vehicle: saline 97 % of control | endpoint: mean survival time, dose: 100.0 mg/kg/injection, schedule: Q01DX009 (ip), vehicle: saline 98 % of control | endpoint: mean survival time, dose: 100.0 mg/kg/injection, schedule: Q04DX003 (ip), vehicle: saline 98 % of control | endpoint: mean survival time, dose: 200.0 mg/kg/injection, schedule: Q01DX009 (ip), vehicle: saline 98 % of control | endpoint: mean survival time, dose: 200.0 mg/kg/injection, schedule: Q04DX003 (ip), vehicle: saline 96 % of control

CC1=CCC(=O)O1
inactive: [2] 102 % of control | [5] 98 % of control | [7] 102 % of control
